Source: paper PMC10981597 (Amino Acids, 2024)

What was measured:
[1] = human, serum
[2] = assay type: physicochemical; settings: pH 7.4
[3] = assay type: physicochemical; settings: pH 6.5

Compound | remaining at 24 h [1] | ANS fluorescence intensity with increasing peptide concentration (self-assembly) [2] | self-assembled morphology by TEM [3]
CCCCCCCCCCCCCCNCCCC[C@@H]1NC(=O)CNC(=O)[C@H](CCCCNCCCCCCCCCCCCCC)NC(=O)[C@@H](N)CSSC[C@@H]2NC(=O)[C@@H]3CSSC[C@@H](C(N)=O)NC(=O)[C@H](CCCCN)NC(=O)CNC(=O)[C@H](CO)NC(=O)[C@H](CCCNC(=N)N)NC(=O)[C@H](CSSC[C@H](NC(=O)[C@H](CCCCN)NC(=O)[C@H](C)NC(=O)CNC1=O)C(=O)N[C@@H](CO)C(=O)N[C@@H](CCCNC(=N)N)C(=O)N[C@@H](CC(C)C)C(=O)N[C@@H](CCSC)C(=O)N[C@@H](Cc1ccc(O)cc1)C(=O)N[C@@H](CC(=O)O)C(=O)N3)NC(=O)[C@H](CO)NC(=O)CNC(=O)[C@H]([C@@H](C)O)NC2=O [K2-K4-MVIIA] | 75.6% | significant increase in fluorescence intensity | nanomicellar structures
CCCCCCCCCCCCCCNCCCC[C@@H]1NC(=O)[C@@H](N)CSSC[C@@H]2NC(=O)[C@@H]3CSSC[C@@H](C(N)=O)NC(=O)[C@H](CCCCN)NC(=O)CNC(=O)[C@H](CO)NC(=O)[C@H](CCCNC(=N)N)NC(=O)[C@H](CSSC[C@H](NC(=O)[C@H](CCCCN)NC(=O)[C@H](C)NC(=O)CNC(=O)[C@H](CCCCN)NC(=O)CNC1=O)C(=O)N[C@@H](CO)C(=O)N[C@@H](CCCNC(=N)N)C(=O)N[C@@H](CC(C)C)C(=O)N[C@@H](CCSC)C(=O)N[C@@H](Cc1ccc(O)cc1)C(=O)N[C@@H](CC(=O)O)C(=O)N3)NC(=O)[C@H](CO)NC(=O)CNC(=O)[C@H]([C@@H](C)O)NC2=O [K2-MVIIA] | 78.7% | significant increase in fluorescence intensity | nanomicellar structures
CSCC[C@@H]1NC(=O)[C@H](CC(C)C)NC(=O)[C@H](CCCNC(=N)N)NC(=O)[C@H](CO)NC(=O)[C@@H]2CSSC[C@@H]3NC(=O)[C@H](CO)NC(=O)CNC(=O)[C@H]([C@@H](C)O)NC(=O)[C@H](CSSC[C@H](N)C(=O)N[C@@H](CCCCN)C(=O)NCC(=O)N[C@@H](CCCCN)C(=O)NCC(=O)N[C@@H](C)C(=O)N[C@@H](CCCCN)C(=O)N2)NC(=O)[C@H](CSSC[C@@H](C(N)=O)NC(=O)[C@H](CCCCN)NC(=O)CNC(=O)[C@H](CO)NC(=O)[C@H](CCCNC(=N)N)NC3=O)NC(=O)[C@H](CC(=O)O)NC(=O)[C@H](Cc2ccc(O)cc2)NC1=O [MVIIA, ω-conotoxin MVIIA, reference compound] |  | almost no increase in fluorescence intensity | oligomers
